Data as given in patent US12570657B2, “Mesylate salts of heterocyclic cytokinins, compositions containing these derivatives and use thereof” (UNIVERZITA PALACKEHO V OLOMOUCI, priority 2020, dated 2026).
Read-outs that look alike come from different tables or passages of the source.

Experiments:
[1] = test system: cytokinin-dependent tobacco callus; test: Tobacco callus biotest (stimulation of plant cell division); format: cell-based, Nicotiana tabacum L. cv. Wisconsin 38; conditions: for activity (%) [10^−5 mol · l^−1 BAP = 100%]: callus growth at concentration with highest activity, 10^−5 M BAP = 100%
Experimental: Stimulation effect of the cytokinin mesylates was tested in tobacco callus biotest using cytokinin dependent tobacco callus. Cytokinin-dependent tobacco callus Nicotiana tabacum L. cv. […] Subcultivation was carried out every three weeks. Fourteen days before the bioassay, the callus tissue was transferred to the media without BAP. Biological activity was determined from the increase in fresh callus weight after four weeks of cultivation. Five replicates were prepared for each cytokinin concentration and the entire test was repeated twice. […] Relative activity of the compound at this concentration was calculated (Tab. 15). The activity obtained for 10^−5 M 6-benzylaminopurine (BAP) was postulated as 100%. The cytokinin bases to be tested were dissolved in dimethylsulfoxide (DMSO) and the solution brought up to 10^−3 M with distilled water. The mesylate salts were dissolved directly in distilled water.

[2] = Aqueous solubility: concentration of saturated solution by HPLC; format: physicochemical; conditions: thermodynamic from solid; saturated solution in water, cytokinin mesylate; read-out: c of CK mesylate
Experimental: Aqueous solubility was measured using the following protocol. Supersaturated solution of meta-topolin mesylate salt was prepared. The solutions were filtered off from visible undissolved particles of the salt to obtain homogenic saturated solution. Saturated solution was diluted 1:10 000 and measured using HPLC Alliance Waters 2690 with C18 Symmetry column with the diameter 2.1 mm and 150 mm length with a porosity of 5 μm. The sample was dissolved in the mobile phase (MeOH: HCOONH4-1:9). The sample was washed with a methanol gradient (10-90%, 35 min) at pH 4 and a flow rate of 0.3 ml/min. The absorbances of the components were detected in the UV region at 210-400 nm. The peak area of meta-topolin mesylate salt was 595 027. The standard was measured as shown in the Table 9 below, Obtained peak area was compared to area peaks measured at certain concentration and the final concentration of saturated solution was determined
Solubility of other cytokinin (CK) mesylates was also determined by this method and the concentrations of saturated solutions are given below in Table 10: […]

[3] = test system: retinal epitelium cells ARPE-19; test: Cytotoxicity for non-cancer cells, resazurine reduction assay, ARPE-19
Experimental: (§1) It is used for viability testing of both bacterial and eukaryotic cells. […] Cultivation medium was DMEM with 10% FBS. Before the experiment, the cells were subcultured for 2 weeks. For the cytotoxicity evaluation, the cells were trypsinized and pipetted into 96 well plates (5000 cells per well in 80 microliters). After 24 hours, 5× concentrated solutions of the tested compounds in the medium were added. […] IC50 values were calculated from dose response curves using drc library for R programming environment.

[4] = test system: winter wheat leaf segments; test: Senescence bioassay: retention of chlorophyll in excised winter wheat leaf tips; format: in vivo, Triticum aestivum cv. Hereward; conditions: for activity (%) [10^−4 mol · l^−1 BAP = 100%]: chlorophyll retention at concentration with highest activity, 10^−4 M BAP = 100%
Experimental: Seeds of winter wheat, Triticum aestivum cv. Hereward, were washed under running water for 24 hours and then sown on vermiculite soaked with Knop's solution. They were placed in a growth chamber at 25° C. with a 16/8 h light/dark period at 50 μmol·m^−2·s^−1. After 7 days, the first leaf was fully developed and the second leaf had started to grow. A tip section of the first leaf, approximately 35 mm long, was removed from 5 seedlings and trimmed slightly to a combined weight of 100 mg. The basal ends of the five leaf tips were placed in the wells of a microtiter polystyrene plate containing 150 μl of each tested compound solution. The entire plate was inserted into a plastic box lined with paper tissues soaked in distilled water to prevent leaf sections from drying out. After 96 h incubation in the dark at 25° C., the leaves were removed and chlorophyll extracted by heating at 80° C. for 10 min in 5 ml of 80% ethanol (v/v). The sample volume was then restored to 5 ml by the addition of 80% ethanol (v/v). The absorbance of the extract was recorded at 665 nm. In addition, chlorophyll extracts from fresh leaves and leaf tips incubated in deionised water were measured. […] Relative activity of the compound at this concentration was calculated (Tab. 3). The activity obtained for 10^−4 M 6-benzylaminopurine (BAP) was postulated as 100%. The values shown are means of five replicates and the whole experiment was repeated twice. The tested cytokinin bases were dissolved in dimethylsulfoxide (DMSO) and the solution brought up to 10^−3 M with distilled water. Cytokinin mesylate salts which are more water-soluble (BAP mesylate, meta-topolin mesylate and kinetin mesylate) could be directly dissolved to form a 10^−3 M solution in distilled water.

[5] = test system: CEM (T-lymphoblastic leukemia); test: In vitro cytotoxicity, Calcein AM assay, CEM; format: cell-based; conditions: 3-day Calcein-AM assay
Description: (§2) Because toxic compounds adversely affect cell metabolic processes, many standard cytotoxicity assays are based on measuring the rate of metabolism of various artificial substrates. The resulting product is then quantified, for example, by spectrometry. Assays can be easily modified for use in 96-well plates, A microtiter assay based on the quantification of Calcein AM metabolism was used to evaluate the cytotoxicity of cytokinins, for example meta-topolin, ortho-topolin, kinetin, BAP or its mesylate salts, but also a number of other cytokinin mesylate derivatives according to the invention. The test is widely used in drug screening programs and in chemosensitivity testing. In living cells, Calcein AM is enzymatically hydrolyzed and the accumulation of the resulting calcein is manifested by green fluorescence. […] These cells were maintained in standard DMEM or RPMI medium (Sigma, MO, USA) supplemented with heat-inactivated fetal bovine serum (10%) with 2 mM L-glutamine and penicillin-streptomycin (1%) under standard cell culture conditions (37° C., 5% CO2 in a humid environment) and subcultured two or three times a week using a standard trypsinization procedure. Approximately 10,000 cells in 80 μl of medium were seeded in a 96-well microtiter plate. After 12 hours of incubation, the compounds to be tested were added in 20 μl aliquots. Control cultures were treated with DMSO alone. […] After 72 hours of incubation, Calcein AM solution (Molecular Probes) was added to a final concentration of 1 μg/ml and the cells were incubated for another hour.
(§3) Cytoxicity of compounds was tested on panel of cell lines of different histogenetic and species origin.

[6] = test system: skin fibroblasts BJ; test: Cytotoxicity for non-cancer cells, resazurine reduction assay, BJ
Experimental: as §1

[7] = test system: keratinocytes HaCaT; test: Cytotoxicity for non-cancer cells, resazurine reduction assay, HaCaT
Experimental: as §1

[8] = test system: rose explants; test: In vitro and post vitro multiplication and rooting of rose; format: in vivo, Rosa multiflora
Experimental: The aim of this experiment was to test whether the new compounds are of practical use in tissue culture practice. The multiplication rate was investigated and the post vitro effects on rooting were examined Rosa hybrida (pot rose cultivar) was cultured in 350 ml vessels with a screw on polycarbonate lid. Each culture vessel contained 100 ml autoclaved medium (120° C., 20 min). The cultures were maintained at 23±2° C. under a 16 h photoperiod at 40 μM·m^−2 s^−1 PAR. The basal medium (BMR) contained Murashige and Skoog (1962) macroelements, microelements and vitamins, 95 μM NaFeEDTA, 555 μM myo-inositol, 111 mM sucrose, 1.332 mM glycine, 684 μM L-glutamine and 7 g/l agar. This medium was supplemented with 10 μM BAP, mT, or 3MeOBAP, or the corresponding mesylate salts. The control medium didn't contain any cytokinin After a culture period of 8 weeks, the number of induced shoots per explant was determined, as well as root number/explant and total root length/explant. The roots were removed and the explants (shoot clusters) were planted in unfertilised peat. After four weeks of acclimatising in a fog unit, root number and root length was determined. As expected, a cytokinin free medium yielded almost no new shoots. The original shoot explant grew out as a good quality single shoot that rooted very well. […] Explants growing on cytokininin mesylates were characterized by a high multiplication index (a large number of new shoots) and were more rooted in comparison with free bases. The use of cytokinin mesylates led to an increase in all monitored parameters in plant culture compared to free cytokinin bases.

[9] = test system: HL-60 (promyelocytic, leukemia); test: In vitro cytotoxicity, Calcein AM assay, HL60; format: cell-based; conditions: 3-day Calcein-AM assay
Description: as §2, §3

[10] = test system: MCF-7 (breast adenocarcinoma); test: In vitro cytotoxicity, Calcein AM assay, MCF7; format: cell-based; conditions: 3-day Calcein-AM assay
Description: as §2, §3

[11] = test system: K562 (chronic myeloid leukemia); test: In vitro cytotoxicity, Calcein AM assay, K-562; format: cell-based; conditions: 3-day Calcein-AM assay
Description: as §2, §3

[12] = resazurin, 72 hour treatment, ARPE-19
[13] = resazurin, 72 hour treatment, HaCaT
[14] = Ex vitro, after four weeks of acclimatising in peat
[15] = In vitro, 10 μM cytokinin, 8 weeks
[16] = resazurin, 72 hour treatment, BJ

| Compound | activity (%) [10^−5 mol · l^−1 BAP = 100%] [1] [%] | solubility thermodynamic [2] [mM] | Cytotoxicity for Fibroblasts (GI20) ARPE-19 [3, 12] [μM] | activity (%) [10^−4 mol · l^−1 BAP = 100%] [4] [%] | Cytotoxicity for Fibroblasts (GI20) BJ ([6]; human, 72 h) [µM] | Cytotoxicity for Fibroblasts (GI20) HaCaT [7, 13] [µM] | IC50 [9] [µM] | IC50 [10] [µM] | IC50 [5] [µM] | Cytotoxicity for Fibroblasts (GI20) BJ [6, 16] [µM] | other results |
| --- | --- | --- | --- | --- | --- | --- | --- | --- | --- | --- | --- |
| CS(=O)(=O)O.Oc1ccccc1CNc1ncnc2nc[nH]c12 [oT mesylate, 6-(2-hydroxybenzylamino)purine mesylate] | 87 | 82.3 | >100 | 69 | >100 | >100 | – | – | – | – | IC50 ([5]; mesylate): 89.4 µM |
| COc1cccc(CNc2ncnc3nc[nH]c23)c1.CS(=O)(=O)O [3MeOBAP mesylate, 6-(3-methoxybenzylamino)purine mesylate] | 83 | 47.5 | – | – | – | – | – | – | – | – | Number of roots per plant [8, 14]: 1.9; Overall length of plant (cm) [8, 14]: 4.5 cm; Number of new shoots per explant [8, 15]: 4.5; Number of roots per explant [8, 15]: 0.0; Overall length of explant (cm) [8, 15]: 0.0 cm; number of flowers per explant [8, 15]: 0.02; activity (%) [10^−4 mol · l^−1 BAP = 100%] ([4]; listed as 3-MeoBAP mesylate, mesylate): 125%; activity (%) [10^−4 mol · l^−1 BAP = 100%] ([4]; mesylate): 184% |
| C/C(=C\CNc1ncnc2[nH]cnc12)CO.CS(=O)(=O)O [tZ mesylate, (E)-4-(9H-Purin-6-Ylamino)-2-Methybut-2-En-1-ol)Methanesulphonate] | 111 | – | >100 | 114 | – | >100 | > 167 | > 167 | > 167 | >100 | – |
| CS(=O)(=O)O.c1coc(CNc2ncnc3nc[nH]c23)c1 [Kinetin mesylate, 6-furfurylaminopurine mesylate] | – | 92.6 | >100 | 110.9 | >100 | >100 | – | – | – | – | IC50 ([10]; Homo sapiens, MCF7, 72 h): > 167 µM; IC50 ([11]; Homo sapiens, K562, 72 h): > 167 µM; IC50 ([5]; 72 h): > 167 µM |
| C/C(=C\CNc1ncnc2nc[nH]c12)CO [trans-zeatin (tZ), trans-zeatin] | 109 | – | >100 | 110 | – | >100 | > 167 | > 167 | > 167 | >100 | – |
| CC(C)=CCNc1ncnc2[nH]cnc12.CS(=O)(=O)O [iP mesylate, N-3-(Methylbut-2-En-1-Yl)-9H-Purin-6-Amin Methanesulphonate] | 95 | – | – | 95 | – | – | – | > 167 | 128 | – | concentration with highest activity ([1]; tobacco callus fresh weight increase, four weeks): 10^−6 mol · l^−1; Cytotoxicity for Fibroblasts (GI20) ARPE-19 [3]: >100 μM; concentration with highest activity ([4]; chlorophyll retention, excised wheat leaf tips, 96 h dark): 10^−4 mol · l^−1; IC50 [11]: 162 µM; Cytotoxicity for Fibroblasts (GI20) BJ [6]: 149.3 µM; Cytotoxicity for Fibroblasts (GI20) HaCaT [7]: >100 µM |
